Measurements as given in US10350210B2, “EGFR and ALK dual inhibitor” (PRECEDO PHARMACEUTICALS CO., LTD, priority 2015, dated 2019).
Like-named read-outs stand apart in the source and are kept apart here.

Legend:
NCI-H1975 = test: Growth of cancer cells (Cell Titer-Glo viability), NCI-H1975; type: cell-based; conditions: Homo sapiens; NCI-H1975 (EGFR L858R/T790M double mutant), 72 hrs
Source text: (§1) By testing the effect of the novel kinase inhibitors on the proliferation of cancer cells, the selectivity of the compounds of the present disclosure in inhibiting the proliferation of cancer cells was further assessed. In this example, human non-small cell lung cancer cell NCI-H1975 (expressing EGFR L858R/T790M double mutant gene), human skin squamous carcinoma cell A431 (expressing wild-type EGFR gene), non-small cell lung cancer NCI-H3255 (expressing EGFR L858R mutant gene), non-small cell lung cancer cell NCI-H3122 (expressing ALK gene), human non-small cell lung cancer cell A549 (expressing wild-type EGFR gene), human non-small cell lung cancer cell NCI-H2122 (expressing wild-type EGFR gene), human non-small cell lung cancer cell NCI-H460 (expressing wild-type EGFR gene), human non-small cell lung cancer cell PC-9 (expressing EGFR delE746_A750 mutant gene), Chinese hamster ovary cell CHO (Cricetulus griseus, hamster, Chinese, ovary), Chinese hamster lung cell CHL, human non-small cell lung cancer cell HCC827 (expressing mutant EGFR del19 gene), human lung adenocarcinoma cell HCC4006 (expressing mutant EGFR del19 gene), human non-small cell lung cancer cell NCI-H2228 (expressing wild-type ALK gene), and mouse primary B cell BaF3 were used, and the above cells were all purchased from ATCC (US). In addition, mouse BaF3-TEL-ALK (stably expressing ALK kinase), mouse BaF3-ALK-F1174L (stably expressing mutant ALK F1174L kinase), mouse BaF3-NPM-ALK (stably expressing ALK kinase), mouse BaF3-TEL-EGFR (stably expressing EGFR kinase), mouse BaF3-TEL-EGFR-T790M (stably expressing EGFR T790M mutant kinase), mouse BaF3-FL-EGFR-Del19 (stably expressing EGFR delE746_A750 mutant kinase), mouse BaF3-TEL-EGFR-L858R (stably expressing EGFR L858R mutant kinase), mouse BaF3-FL-EGFR-T790M-L858R (stably expressing EGFR T790M/L858R mutant kinase), mouse BaF3-TEL-INSR (stably expressing INSR protein), mouse BaF3-TEL-IGF1R (stably expressing IGF1R Protein), mouse BaF3-EML4-ALK (stably expressing EML4-ALK Protein), mouse BaF3-TEL-JAK3 (stably expressing JAK3 kinase protein), mouse BaF3-TEL-CSF1R (stably expressing CSF1R protein), and mouse BaF3-TEL-ALK-F1196M (stably expressing ALK F1196M mutant kinase) were also used in this example. The above cell lines were all established by our laboratory via the following process: kinase proteins or protein domain sequences of human ALK, ALK F1174L, EGFR, EGFR T790M, EGFR delE746_A750, EGFR L858, EGFR T790M/L858R, INSR, IGF1R, EML4-ALK, JAK3, CSF1R, ALK F1196M were amplified respectively by PCR, and were respectively inserted into MSCV-Puro vector (Clontech) with N-terminal TEL fragments and/or NPM fragments and/or TPR fragments; the resultants were stably transfected into mouse BaF3 cells by the means of retrovirus, and the IL-3 growth factors were removed, and eventually the ALK, ALK F1174L, EGFR, EGFR T790M, EGFR delE746_A750, EGFR L858, EGFR T790M/L858R, INSR, IGF1R, EML4-ALK, JAK3, CSF1R, ALK F1196M-transferred protein dependent cell lines were obtained.
(§2) The number of viable cells was determined quantitatively by a microplate reader using Cell Titer-Glo® (Promega, US) chemiluminescence cell viability assay kit.

PC-9 = test: Growth of cancer cells (Cell Titer-Glo viability), PC-9; type: cell-based; conditions: Homo sapiens; PC-9 (EGFR delE746_A750 mutant), 72 hrs
Source text: as §1, §2

A431 = test: Growth of cancer cells (Cell Titer-Glo viability), A431; type: cell-based; conditions: Homo sapiens
Source text: as §1, §2

CHO = test: Cell growth (Cell Titer-Glo viability), CHO; type: cell-based, Chinese hamster; conditions: Cricetulus griseus
Source text: as §1, §2

CHL = test: Cell growth (Cell Titer-Glo viability), CHL; type: cell-based, Chinese hamster; conditions: Cricetulus griseus
Source text: as §1, §2

NCI-H2122 = test: Growth of cancer cells (Cell Titer-Glo viability), NCI-H2122; type: cell-based; conditions: Homo sapiens; NCI-H2122 (wild-type EGFR), 72 hrs
Source text: as §1, §2

A549 = test: Growth of cancer cells (Cell Titer-Glo viability), A549; type: cell-based; conditions: Homo sapiens; A549 (wild-type EGFR), 72 hrs
Source text: as §1, §2

HCC827 = test: Growth of cancer cells (Cell Titer-Glo viability), HCC827; type: cell-based; conditions: Homo sapiens; HCC827 (mutant EGFR del19), 72 hrs
Source text: as §1, §2

NCI-H2228 = test: Growth of cancer cells (Cell Titer-Glo viability), NCI-H2228; type: cell-based; conditions: Homo sapiens; NCI-H2228 (wild-type ALK), 72 hrs
Source text: as §1, §2

BaF3-ALK-F1174L = test: Cell growth (Cell Titer-Glo viability), BaF3-ALK-F1174L; type: cell-based; conditions: Mus musculus; BaF3-ALK-F1174L (mutant ALK F1174L kinase), 72 hrs
Source text: as §1, §2

BaF3-NPM-ALK = test: Cell growth (Cell Titer-Glo viability), BaF3-NPM-ALK; type: cell-based; conditions: Mus musculus; BaF3-NPM-ALK (stably expressing ALK kinase), 72 hrs
Source text: as §1, §2

NCI-H3122 = test: Growth of cancer cells (Cell Titer-Glo viability), NCI-H3122; type: cell-based; conditions: Homo sapiens
Source text: as §1, §2

BaF3 = test: Cell growth (Cell Titer-Glo viability), BaF3; type: cell-based; conditions: BaF3 mouse primary B cell, 72 hrs
Source text: as §1, §2

BaF3-TEL-ALK = test: Cell growth (Cell Titer-Glo viability), BaF3-TEL-ALK; type: cell-based; conditions: Mus musculus; BaF3-TEL-ALK (stably expressing ALK kinase), 72 hrs
Source text: as §1, §2

BaF3-TEL-EGFR-T790M = test: Cell growth (Cell Titer-Glo viability), BaF3-TEL-EGFR-T790M; type: cell-based; conditions: Mus musculus; BaF3-TEL-EGFR-T790M (EGFR T790M mutant kinase), 72 hrs
Source text: as §1, §2

BaF3-FL-EGFR-Del19 = test: Cell growth (Cell Titer-Glo viability), BaF3-FL-EGFR-Del19; type: cell-based; conditions: Mus musculus; BaF3-FL-EGFR-Del19 (EGFR delE746_A750 mutant kinase), 72 hrs
Source text: as §1, §2

[1] = A-431, A431 (wild-type EGFR), 72 hrs, read-out: GI50
[2] = CHO Chinese hamster ovary cell, 72 hrs, read-out: GI50
[3] = CHL Chinese hamster lung cell, 72 hrs, read-out: GI50
[4] = NCI-H3122 (expressing ALK gene), 72 hrs, read-out: GI50

GI50 (NCI-H1975)	GI50 (PC-9)	GI50 (A431; [1])	GI50 (NCI-H2122)	GI50 (A549)	GI50 (HCC827)	GI50 (NCI-H2228)	GI50 (BaF3-ALK-F1174L)	GI50 (BaF3-NPM-ALK)	GI50 (NCI-H3122; [4])	GI50 (BaF3)	GI50 (BaF3-TEL-ALK)	GI50 (BaF3-TEL-EGFR-T790M)	GI50 (BaF3-FL-EGFR-Del19)	GI50 (A431; A-431, 72 h)	GI50 (NCI-H3122; NCI-H3122, 72 h)	SMILES	GI50 (CHO; [2])	GI50 (CHL; [3])	GI50 (CHO; CHO, 72 h)	GI50 (CHL; CHL, 72 h)
0.077 µM	0.036 µM	0.37 µM		0.39 µM	0.038 µM	0.07 µM		< 0.0003 µM	< 0.0003 µM	0.3 µM	0.0075 µM					C=CC(=O)Nc1cc(Nc2ncc(Cl)c(Nc3ccccc3S(=O)(=O)C(C)C)n2)c(OC)cc1N1CCN(C2CCCCC2)CC1 [Compound 15, N-(5-(5-chloro-4-(2-(isopropylsulfonyl)phenylamino)pyrimidin-2-ylamino)-2-(4-cyclohexylpiperazin-1-yl)-4-methoxyphenyl)acrylamide]	0.17 µM	1.4 µM		
0.024 µM	0.045 µM	0.43 µM	1.3 µM	2.2 µM	0.016 µM	0.0074 µM	1.5 µM		0.007 µM	2 µM	0.008 µM	0.062 µM	0.015 µM			C=CC(=O)Nc1cc(Nc2ncc(Cl)c(Nc3ccccc3S(=O)(=O)C(C)C)n2)c(OC)cc1N1CCNCC1 [Compound 4, N-(5-(5-chloro-4-(2-(isopropylsulfonyl)phenylamino)pyrimidin-2-ylamino)-4-methoxy-2-(piperazin-1-yl)phenyl) acrylamide]	> 10 µM	4.9 µM		
0.041 µM	0.012 µM	0.47 µM		0.63 µM	0.015 µM	0.0059 µM		< 0.0003 µM	< 0.0003 µM	1.4 µM	> 10 µM					C=CC(=O)Nc1cc(Nc2ncc(Cl)c(Nc3ccccc3S(=O)(=O)C(C)C)n2)c(OC)cc1N1CCN(CCOC)CC1 [Compound 13, N-(5-(5-chloro-4-(2-(isopropylsulfonyl)phenylamino)pyrimidin-2-ylamino)-4-methoxy-2-(4-(2-methoxyethyl)piperazin-1-yl)phenyl)acrylamide]	0.47 µM	3.7 µM		
0.1 µM		0.35 µM	4.3 µM	0.13 µM	0.032 µM	0.028 µM		< 0.0003 µM	< 0.0003 µM							C=CC(=O)Nc1cc(Nc2ncc(Cl)c(Nc3ccccc3S(=O)(=O)C(C)C)n2)c(OC)cc1N1CCN(CC2CC2)CC1 [Compound 14, N-(5-(5-chloro-4-(2-(isopropylsulfonyl)phenylamino)pyrimidin-2-ylamino)-2-(4-(cyclopropylmethyl)piperazin-1-yl)-4-methoxyphenyl)acrylamide]	0.3 µM	2 µM		

More lines, now with the values behind:

SMILES	GI50 (NCI-H1975)	GI50 (PC-9)	GI50 (A431; [1])	GI50 (NCI-H2122)	GI50 (A549)	GI50 (HCC827)	GI50 (NCI-H2228)	GI50 (BaF3-ALK-F1174L)	GI50 (BaF3-NPM-ALK)	GI50 (NCI-H3122; [4])	GI50 (BaF3)	GI50 (BaF3-TEL-ALK)	GI50 (BaF3-TEL-EGFR-T790M)	GI50 (BaF3-FL-EGFR-Del19)	GI50 (A431; A-431, 72 h)	GI50 (NCI-H3122; NCI-H3122, 72 h)	GI50 (CHO; [2])	GI50 (CHL; [3])	GI50 (CHO; CHO, 72 h)	GI50 (CHL; CHL, 72 h)
C=CC(=O)Nc1cc(Nc2ncc(Cl)c(Nc3ccccc3S(=O)(=O)C(C)C)n2)c(OC)cc1N1CCOCC1 [Compound 7, N-(5-(5-chloro-4-(2-(isopropylsulfonyl)phenylamino)pyrimidin-2-ylamino)-4-methoxy-2-morpholinylphenyl) acrylamide]	1.2 µM	0.09 µM	0.84 µM	1.03 µM	0.36 µM	0.11 µM	0.031 µM	0.63 µM	0.001 µM								2.9 µM	9.1 µM		
C=CC(=O)Nc1cc(Nc2ncc(Cl)c(Nc3ccccc3S(=O)(=O)C(C)C)n2)c(OC)cc1N1CCN(Cc2ccccc2)CC1 [Compound 16, N-(2-(4-benzylpiperazin-1-yl)-5-(5-chloro-4-(2-(isopropylsulfonyl)phenylamino)pyrimidin-2-ylamino)-4-methoxyphenyl)acrylamide]	0.31 µM	0.23 µM	4.2 µM	1.1 µM	4.5 µM		0.066 µM		0.016 µM	0.02 µM	4.1 µM	0.016 µM					1.3 µM	> 10 µM		
C=CC(=O)Nc1cc(Nc2ncc(Cl)c(Nc3ccccc3S(=O)(=O)C(C)C)n2)c(OC)cc1N1CCN[C@@H](C)C1 [Compound 29, (S)—N-(5-(5-chloro-4-(2-(isopropylsulfonyl)phenylamino)pyrimidin-2-ylamino)-4-methoxy-2-(3-methylpiperazin-1-yl)phenyl)acrylamide]	0.12 µM	0.062 µM	0.1 µM	0.68 µM	0.69 µM	0.059 µM	0.073 µM	0.95 µM	0.003 µM								1.5 µM	3.7 µM		
C=CC(=O)Nc1cc(Nc2ncc(Cl)c(Nc3ccccc3S(=O)(=O)C(C)C)n2)c(OC)cc1N1CCN[C@H](C)C1 [Compound 28, (R)—N-(5-(5-chloro-4-(2-(isopropylsulfonyl)phenylamino)pyrimidin-2-ylamino)-4-methoxy-2-(3-methylpiperazin-1-yl)phenyl)acrylamide]	0.14 µM	0.071 µM	0.071 µM	0.621 µM	0.48 µM	0.064 µM	0.031 µM	1 µM	0.001 µM								1.7 µM	3.3 µM		
C=CC(=O)Nc1cc(Nc2ncc(Cl)c(Nc3cccc(C(F)(F)F)c3)n2)c(OC)cc1N1CCN(C)CC1 [Compound 18, N-(5-(5-chloro-4-(3-(trifluoromethyl)phenylamino)pyrimidin-2-ylamino)-4-methoxy-2-(4-methylpiperazin-1-yl)phenyl)acrylamide]	0.26 µM	0.16 µM	4.6 µM	3.4 µM	> 10 µM	0.046 µM	0.17 µM	1.7 µM		0.77 µM	4.3 µM	0.18 µM	0.08 µM	< 0.0003 µM			5.4 µM	4.2 µM		
C[C@@H](Oc1cc(-c2cnn(C3CCNCC3)c2)cnc1N)c1c(Cl)ccc(F)c1Cl [Crizotinib, reference compound]															1 µM	0.073 µM			6.4 µM	1.9 µM
